Laboratory results taken from patent publication US5110976A, “Insecticidal composition comprising more than one active ingredient” (priority 1985, dated 1992).

How the values were obtained:
Colorado potato beetle = assay: Topical test on Colorado potato beetle (Table 14); type: in vivo, Colorado potato beetle (Leptinotersa decemlineata), imago
Protocol: In Table 14 the activity on Colorado potato beetle is shown.
The test materials are dissolved in 2-ethoxyethanol (Cellosolve). One 0.3 μl drop of the solution is applied to the abdominal sterna of the imago. The treatment is carried out by using 2 parallels and 10 insects for each dose. […]

Tribolium confusum [1] = assay: Contact test, mixtures of Ia and Ib of various ratio (Table 13); type: in vivo, flour beetle (Tribolium confusum)
Protocol: (§1) The active ingredient is dissolved in a 1:2 mixture of oil and acetone; filter paper discs (Whatman No. 1, diameter 9 cm) are impregnated with the solutions of the corresponding stereoisomers and enantiomer-pairs, respectively. The acetone is allowed to evaporate, whereupon the insects are exposed to filter papers discs placed in Petri-dishes. Three parallels are used on each dose and 15 insects are placed into each Petri-dish. The percental mortality is determined after 24 hours. The corrected percent mortality is calculated by means of the Abbot Formula.
In Table 13 the insecticidal effect of mixtures of enantiomer-pairs Ia and Ib of various ratio is shown on flour beetle (Tribolium confusum). The test method is that disclosed in Example 43.

Tribolium confusum [2] = assay: Contact test on Tribolium confusum (Table 12); type: in vivo; details: Tribolium confusum, 24 h; for mortality at 330 µg/disc: 0.33 mg/disc; for mortality at 1000 µg/disc: 1.00 mg/disc; for mortality at 3000 µg/disc: 3.00 mg/disc; for mortality at 110 µg/disc: 0.11 mg/disc
Protocol: as §1
It appears from Table 12 that the increased activity shown in Example 41 is due to the synergistic effect of the trans-isomers to Tribolium confusum.

Musca domestica [3] = assay: Filter paper disc contact test (Table 11); type: in vivo, house fly (Musca domestica); details: Musca domestica, 24 h
Protocol: In Table 1 the activity of various stereoisomers of cypermethrin on the house fly (Musca domestica) is shown.
as §1

T. confusum [4] = assay: Activity as function of time, toxic symptoms (Table 16); type: in vivo, flour beetle (T. confusum), imagos
Protocol: as §1
Activity of cypermethrin stereoisomer-pairs as function of time on flour beetle (T. Confusum).
Flour beetle (T. confusum) imagos are exposed in Petri-dishes according to the method described in Example 43. For each dose 3 parallels are used and 15 animals are applied for each parallel test. In each point of time the insects lying on their backs are counted and the percental results are expressed in Table 16.

Musca domestica [5] = assay: Topical LD50 (Table 3); type: in vivo, house fly (Musca domestica), 3-5 days' old females; details: topical, dorsal cuticulum; 24 hours
Protocol: (§2) In Table 3 the LD50 values of the Ig and Ii isomers and those of the Ib isomer-pair are disclosed. The data are topically measured.
(§3) The active ingredients are dissolved in 2-ethoxyethanol (cellosolve) and 0.3 μl droplets of the solutions are applied onto the dorsal cuticulum of 3-5 days' old female house flies. 10 animals are used and 2 parallels are carried out for each dose. The tests are carried out for 5 dose levels between activity limits of 0% and 100%. After treatment the flies are placed into glass vials. Mortality is determined after 24 hours. Data are transformed to log10 dosage and probit mortality. LD50 and confidence interval values are calculated by linear regression analysis of the log-probit data. The expected values required for the calculation of synergism are obtained by means of harmonic average. The synergistic factor is the quotient of the expected and measured values.

T. confusum [6] = assay: Topical LD50 (Table 3); type: in vivo, 1-2 weeks' old imagos; details: topical, abdominal side
Protocol: as §2, §3
The active ingredients are dissolved in 2-ethoxyethanol and 0.3 μl droplets of the solutions are applied onto the abdominal side of 1-2 weeks' old imagos. Treatment is carried out with 2 parallels and 20 animals for each dose by using 5 dose levels in the range between activity limits of 0% and 100%. Evaluation and determination of LD50 values and synergistic factors are carried out as described in Example 21.

T. confusum [7] = assay: Contact method, synergism between stereoisomers (Table 2); type: in vivo; details: Tribolium confusum, 24 h
Protocol: The stereoisomers are dissolved in a 1:2 mixture of mineral oil and acetone and filter paper discs (Whatman No. 1., diameter 9 cm) are impregnated with the corresponding dosage of the solution of the active ingredient. The acetone is allowed to evaporate and the insects are examined on filter paper discs placed into Petri-dishes. Three parallels are used for each dose and 15 animals are placed in each Petri-dish. Mortality rate is determined after 24 hours. The corrected mortality % data are calculated by means of the Abbot formula.
The test is carried out on T. confusum and the following results are obtained by the contact method for various active ingredient doses.
The test is carried out according to the method described in Example 20.

Row | SMILES | 24 hours' mortality % (Tribolium confusum [1]; 0.02 mg/disc, 1440 min) [%] | mortality at 330 µg/disc (Tribolium confusum [2]) [%] | mortality at 1000 µg/disc (Tribolium confusum [2]) [%] | mortality at 3000 µg/disc (Tribolium confusum [2]) [%] | % of insects showing toxic symptoms (T. confusum [4]; 30 minutes) [%] | % of insects showing toxic symptoms (T. confusum [4]; 30 minutes, 0.33 mg/disc) [%] | % of insects showing toxic symptoms (T. confusum [4]; 30 minutes, 1.00 mg/disc) [%] | % of insects showing toxic symptoms (T. confusum [4]; 30 minutes, 3.00 mg/disc) [%] | % of insects showing toxic symptoms (T. confusum [4]; 60 minutes) [%] | % of insects showing toxic symptoms (T. confusum [4]; 60 minutes, 0.33 mg/disc) [%] | % of insects showing toxic symptoms (T. confusum [4]; 60 minutes, 1.00 mg/disc) [%] | % of insects showing toxic symptoms (T. confusum [4]; 60 minutes, 3.00 mg/disc) [%] | % of insects showing toxic symptoms (T. confusum [4]; 120 minutes) [%] | % of insects showing toxic symptoms (T. confusum [4]; 120 minutes, 0.33 mg/disc) [%] | % of insects showing toxic symptoms (T. confusum [4]; 120 minutes, 1.00 mg/disc) [%] | % of insects showing toxic symptoms (T. confusum [4]; 120 minutes, 3.00 mg/disc) [%] | % of insects showing toxic symptoms (T. confusum [4]; 180 minutes) [%] | % of insects showing toxic symptoms (T. confusum [4]; 180 minutes, 0.33 mg/disc) [%] | % of insects showing toxic symptoms (T. confusum [4]; 180 minutes, 1.00 mg/disc) [%] | % of insects showing toxic symptoms (T. confusum [4]; 180 minutes, 3.00 mg/disc) [%] | also measured
1 | CC1(C)C(C=C(Cl)Cl)C1C(=O)OC(C#N)c1cccc(Oc2ccccc2)c1 (stereo not shown) [Ia:Ib = 3:7] | 20 | – | – | – | – | – | – | – | – | – | – | – | – | – | – | – | – | – | – | – | 24 hours' mortality % (Colorado potato beetle; 0.05 μg/beetle): 45%; 24 hours' mortality % (Colorado potato beetle; 0.10 μg/beetle): 65%; 24 hours' mortality % (Colorado potato beetle; 0.20 μg/beetle): 75%; 24 hours' mortality % (Colorado potato beetle; 0.40 μg/beetle): 85%; 24 hours' mortality % (Tribolium confusum [1]; 0.06 mg/disc, 1440 min): 81%; 24 hours' mortality % (Tribolium confusum [1]; 0.25 mg/disc): 100%; 24 hours' mortality % (Tribolium confusum [1]; 1.00 mg/disc): 100%
2 | CC1(C)[C@H](C(=O)O[C@H](C#N)c2cccc(Oc3ccccc3)c2)[C@@H]1C=C(Cl)Cl [If] | – | 100 | 100 | 100 | 0 | 0 | 48 | 64 | 0 | 5 | 84 | 100 | 0 | 40 | 100 | 100 | 39 | 61 | 100 | 100 | mortality at 40 µg/disc (Musca domestica [3]; 0.04 mg/disc): 68%; mortality at 110 µg/disc (Musca domestica [3]; 0.11 mg/disc): 93%; mortality at 330 µg/disc (Musca domestica [3]; 0.33 mg/disc): 100%; mortality at 1000 µg/disc (Musca domestica [3]; 1.00 mg/disc): 100%; mortality at 3000 µg/disc (Musca domestica [3]; 3.00 mg/disc): 100%
3 | CC1(C)C(C=C(Cl)Cl)C1C(=O)OC(C#N)c1cccc(Oc2ccccc2)c1 (stereo not shown) [5:5] | 0 | – | – | – | – | – | – | – | – | – | – | – | – | – | – | – | – | – | – | – | 24 hours' mortality % (Tribolium confusum [1]; 0.06 mg/disc, 1440 min): 43%; mortality at 250 µg/disc (Tribolium confusum [1]; Tribolium confusum, 24 h, 0.25 mg/disc): 100%; mortality at 1000 µg/disc (Tribolium confusum [1]; Tribolium confusum, 24 h, 1.00 mg/disc): 100%
4 | CC1(C)[C@@H](C=C(Cl)Cl)[C@@H]1C(=O)O[C@@H](C#N)c1cccc(Oc2ccccc2)c1 [Ii] | – | 0 | 71 | 90 | 0 | 0 | 0 | 15 | 0 | 0 | 0 | 70 | 0 | 0 | 0 | 100 | 0 | 0 | 0 | 100 | LD50 measured (Musca domestica [5]): 141.9 ng/insect; LD50 measured (T. confusum [6]): 1291.8 ng/insect; mortality at 110 µg/disc (Tribolium confusum [2]): 0%; mortality at 110 µg/disc (T. confusum [7]; 0.11 mg/disc): 0%; mortality at 330 µg/disc (T. confusum [7]; 0.33 mg/disc): 0%; mortality at 1000 µg/disc (T. confusum [7]; 1.00 mg/disc): 71%; mortality at 3000 µg/disc (T. confusum [7]; 3.00 mg/disc): 90%
5 | CC1(C)[C@H](C=C(Cl)Cl)[C@@H]1C(=O)O[C@@H](C#N)c1cccc(Oc2ccccc2)c1 [Ih] | – | 38 | 80 | 100 | 0 | 0 | 0 | 0 | 0 | 0 | 0 | 8 | 0 | 0 | 0 | 67 | 0 | 0 | 0 | 88 | mortality at 110 µg/disc (Tribolium confusum [2]): 0%
